Patent US8318657B2, “Methods and compositions for preventing and/or treating pancreatitis” (Flinders Technologies Pty Ltd., priority 2005, dated 2012)
Entries after “also recorded” stand apart in the source; their conditions may differ. Square brackets hold non-standard residues; d marks the D form. Ends that are not written are not given here. Peptide text beside a SMILES is read from it.

Key:
[1] = system: mice without acute pancreatitis; assay: Control groups: mice given galanin or galanin antagonist alone (saline, no caerulein); settings: mice without AP
[2] = biological target: T1, GALR2 (Homo sapiens, UniProt O43603); settings: GALR2 vs GALR1; cited from earlier work
T1 sequence (O43603 1-387): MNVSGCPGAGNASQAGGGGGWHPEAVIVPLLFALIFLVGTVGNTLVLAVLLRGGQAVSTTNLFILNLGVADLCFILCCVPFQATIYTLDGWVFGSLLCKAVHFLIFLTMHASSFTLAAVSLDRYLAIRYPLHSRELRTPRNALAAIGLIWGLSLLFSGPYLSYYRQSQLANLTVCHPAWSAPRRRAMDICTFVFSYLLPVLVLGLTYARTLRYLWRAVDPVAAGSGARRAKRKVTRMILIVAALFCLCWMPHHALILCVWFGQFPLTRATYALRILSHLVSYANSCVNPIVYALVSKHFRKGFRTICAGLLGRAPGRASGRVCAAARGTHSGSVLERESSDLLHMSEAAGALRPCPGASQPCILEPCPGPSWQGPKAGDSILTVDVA

[3] = system: caerulein-induced acute pancreatitis (AP) in mice; assay: Caerulein-induced acute pancreatitis in mice (mild model, 7 hourly i.p. injections) with galanin or galanin antagonists; format: in vivo, mouse (female Balb C or Swiss); settings: mouse caerulein AP
[4] = 20 nmol/kg i.p. with each caerulein injection, reduction of AP-induced level
[5] = 40 nmol/kg i.p. with each caerulein injection, vs AP alone
[6] = dose not given (20 and 40 nmol/kg tested)
[7] = dose not given (20 and 40 nmol/kg tested), decrease of AP-induced level
[8] = 40 nmol/kg i.p. with each caerulein injection, reduction of AP-induced level

With `CC(C)C[C@H](NC(=O)CNC(=O)[C@H](CC(N)=O)NC(=O)[C@H](CCCCN)NC(=O)[C@H](CC(=O)O)NC(=O)[C@H](CO)NC(=O)[C@H](Cc1ccccc1)NC(=O)[C@H](CO)NC(=O)[C@H](CCCNC(=N)N)NC(=O)[C@H](Cc1cnc[nH]1)NC(=O)[C@H](CC(N)=O)NC(=O)CNC(=O)[C@@H](NC(=O)[C@H](C)NC(=O)[C@H](Cc1cnc[nH]1)NC(=O)[C@@H]1CCCN1C(=O)CNC(=O)[C@H](CC(C)C)NC(=O)[C@H](CC(C)C)NC(=O)[C@H](Cc1ccc(O)cc1)NC(=O)CNC(=O)[C@H](C)NC(=O)[C@H](CO)NC(=O)[C@H](CC(N)=O)NC(=O)[C@H](CC(C)C)NC(=O)[C@@H](NC(=O)[C@H](Cc1c[nH]c2ccccc12)NC(=O)CN)[C@@H](C)O)C(C)C)C(=O)N[C@H](C(=O)N[C@@H](CO)C(=O)O)[C@@H](C)O` [Galanin] as the compound, how does the plasma amylase activity ([1]; 10 nmol/kg alone, vs baseline) read?
Its plasma amylase activity is “did not increase plasma amylase activity above baseline activity”.

And the plasma lipase activity ([1]; 10 nmol/kg alone, vs baseline)?
The plasma lipase activity was “did not increase plasma lipase activity above baseline activity”.

What about the “pancreatic myeloperoxidase (MPO) activity” value (“pancreatic myeloperoxidase” below) ([1]; 10 nmol/kg alone, vs saline control) of the same compound?
The value was “did not significantly increase pancreatic MPO activity above that measured in saline control”.

For “Galanin 2-29: galanin fragment 2-29 (WTLNSAGYLLGPHAVGNHRSFSDKNGLT; ends and bridges not checked; UniProt P22466 34-61, looked up, fragment)”, which “affinity for GALR2 relative to GALR1” value [2] is on record?
The value was “higher affinity than GALR1”.

For “Galanin(1-13)-Pro-Pro-Ala-Leu-Ala-Leu-Ala amide (GWTLNSAGYLLGPPPALALA-NH2) [M40]”, which “pancreatic acinar cell vacuolization score” value ([3]; 20 nmol/kg) is on record?
Its value is “significantly reduced”.

And the “pancreatic myeloperoxidase” value [3, 4]?
The value was “significantly reduced”.

And the “pancreatic acinar cell vacuolization score” value ([3]; 40 nmol/kg)?
Its value is “significantly reduced”.

And the “pancreatic myeloperoxidase” value [3, 5]?
Its value is “significantly reduced”.

And the pancreatitis-induced plasma hyperenzymemia ([3]; co-treatment, 20 and 40 nmol/kg tested)?
Its pancreatitis-induced plasma hyperenzymemia is “failure to reduce the pancreatitis-induced plasma hyperenzymemia”.

What about the “pancreatic acinar cell necrosis score” value [3, 6] of the same compound?
The value was “without effect”.

And the “pancreatic acinar cell vacuolization score” value [3, 6]?
The value was “did”.

And the “pancreatic myeloperoxidase” value [3, 7]?
The value was “decreased”.

What does the source list for “M35: GWTLNSAGYLLGPPPGFSPFR (SEQ ID NO: 15); amino terminal portion of galanin linked to bradykinin”?
pancreatic myeloperoxidase (MPO) activity [3, 4]: significantly reduced; pancreatic acinar cell necrosis score ([3]; 40 nmol/kg (high dose), histology scoring system): reduced the necrosis score; also recorded: significantly reduced; plasma amylase activity [3, 8]: depressed; also recorded: significantly reduced; plasma lipase activity [3, 8]: significantly reduced; pancreatic myeloperoxidase (MPO) activity [3, 5]: significantly reduced; pancreatic acinar cell vacuolization score [3, 6]: failed to improve the acute pancreatitic-induced vacuolization; also recorded: without effect; pancreatic myeloperoxidase (MPO) activity [3, 7]: decreased

For `CC(C)C[C@H](NC(=O)[C@H](CC(C)C)NC(=O)[C@@H](Cc1c[nH]c2ccccc12)NC(=O)[C@H](Cc1ccccc1)NC(=O)[C@@H](Cc1c[nH]c2ccccc12)NC(=O)[C@H](CCC(N)=O)NC(=O)[C@H](CCC(N)=O)NC(=O)[C@@H]1CCCN1C(=O)[C@H](CCCCN)NC(=O)[C@@H]1CCCN1C(=O)[C@@H](CCCNC(=N)N)NC(=O)[C@@H]1CCCN1C(=O)CNC(=O)[C@H](CC(C)C)NC(=O)[C@H](CC(C)C)NC(=O)[C@H](Cc1ccc(O)cc1)NC(=O)CNC(=O)[C@H](C)NC(=O)[C@H](CO)NC(=O)[C@H](CC(N)=O)NC(=O)[C@H](CC(C)C)NC(=O)[C@@H](NC(=O)[C@H](Cc1c[nH]c2ccccc12)NC(=O)CN)[C@@H](C)O)C(N)=O` [C7, Galanin(1-13)-spantide amide] (H-GWTLNSAGYLLGP[dR]PKPQQ[dW]F[dW]LL-NH2), which “pancreatic myeloperoxidase” value ([1]; 40 nmol/kg alone) is on record?
Its value is “produced an increase in pancreatic MPO activity; also recorded: significantly elevated pancreatic MPO activity”.
